Values of other authors in patent US20100008998A1, “SUBMICRON NANOPARTICLE OF POORLY WATER SOLUBLE CAMPTOTHECIN DERIVATIVES AND PROCESS FOR PREPARATION THEREOF” (SAMYANG CORPORATION, priority 2006, published 2010).
Like-named read-outs stand apart in the source and are kept apart here.

Key:
[1] = in the human body
topoisomerase I = molecular target: T1, topoisomerase I (Homo sapiens, UniProt P11387)
T1 sequence (P11387 1-765): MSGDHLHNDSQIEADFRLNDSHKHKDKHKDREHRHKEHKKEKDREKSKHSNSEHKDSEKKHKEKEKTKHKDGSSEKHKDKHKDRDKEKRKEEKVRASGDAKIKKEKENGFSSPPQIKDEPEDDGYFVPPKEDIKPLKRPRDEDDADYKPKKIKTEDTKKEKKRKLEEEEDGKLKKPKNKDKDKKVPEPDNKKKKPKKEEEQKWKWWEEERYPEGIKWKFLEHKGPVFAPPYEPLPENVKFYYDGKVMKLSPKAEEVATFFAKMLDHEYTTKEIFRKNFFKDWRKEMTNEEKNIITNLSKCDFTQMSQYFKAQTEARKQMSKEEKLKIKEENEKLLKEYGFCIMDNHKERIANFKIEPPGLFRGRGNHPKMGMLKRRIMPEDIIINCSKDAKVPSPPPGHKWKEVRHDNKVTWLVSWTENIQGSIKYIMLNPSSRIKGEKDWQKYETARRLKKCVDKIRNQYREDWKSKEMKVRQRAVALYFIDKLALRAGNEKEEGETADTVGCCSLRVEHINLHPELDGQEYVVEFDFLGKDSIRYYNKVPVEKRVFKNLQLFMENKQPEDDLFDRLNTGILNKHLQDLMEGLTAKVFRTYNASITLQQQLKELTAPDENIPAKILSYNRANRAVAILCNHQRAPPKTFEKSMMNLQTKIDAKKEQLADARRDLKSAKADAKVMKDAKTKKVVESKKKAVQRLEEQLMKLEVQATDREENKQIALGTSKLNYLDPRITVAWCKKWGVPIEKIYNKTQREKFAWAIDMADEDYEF

[2] = not given; remark: listed apart in the source

## CCc1c2c(nc3ccc(OC(=O)N4CCC(N5CCCCC5)CC4)cc13)-c1cc3c(c(=O)n1C2)COC(=O)[C@]3(O)CC [CPT-11]
[1]
  conversion rate of CPT-11 into the active SN-38: ≤ 10%

## CCc1c2c(nc3ccc(O)cc13)-c1cc3c(c(=O)n1C2)COC(=O)[C@]3(O)CC [SN-38, 7-Ethyl-10-hydroxycamptothecin]
other
  water solubility: ≤ 10 µg/mL
Active lactone form
  water solubility: ≤ 10 µg/mL
Carboxy anion form
  can be dissolved in water in the amounts of: ≥ 4 mg/mL
Topoisomerase I
  better in suppressing the activity of topoisomerase I compared to CPT-11: ≥ 1,000 times
[2]
  better in in vitro cytotoxicity compared to CPT-11: ≥ 2,000 times
